Results published in patent publication US10344049B2, “Substituted steroids for the treatment of cancer” (AQUAVAN TECHNOLOGY CO., LTD., priority 2017, dated 2019).
Where two headings read alike, the source gives them in different places.

Columns and labels:
Assay type in all cases: cell-based
[1] = system: human colorectal cancer cells SW-480; assay: Cell viability test (Resazurin), SW480 cells; parameters: evaluation of ability to inhibit cell growth activity (IC50): scale not given here
Procedure: (§1) Cell viability was determined with Resazurin (at a final concentration of 25 μg/mL).

[2] = system: African green monkey kidney cells Vero; assay: Cell viability test (Resazurin), Vero cells; conditions: for evaluation of ability to inhibit cell growth activity (IC50): grade of the IC50 of Table 2
Procedure: as §1

[3] = system: human leukemia cells U937; assay: Cell viability test (Resazurin), U937 cells
Procedure: as §1

[4] = system: human breast cancer cells MDA-MB-468; assay: Cell viability test (Resazurin), MDA-MB-468 cells
Procedure: as §1

[5] = system: human lung cancer cells A549; assay: Cell viability test (Resazurin), A549 cells; parameters: evaluation of ability to inhibit cell growth activity (IC50): scale not given here
Procedure: as §1

[6] = system: human liver cancer cells Mahlavu; assay: Cell viability test (Resazurin), Mahlavu cells
Procedure: as §1

[7] = system: human breast cancer cells MDA-MB-231; assay: Cell viability test (Resazurin), MDA-MB-231 cells; parameters: evaluation of ability to inhibit cell growth activity (IC50): scale not given here
Procedure: as §1

[8] = system: human Glioblastoma cells U87-MG; assay: Cell viability test (Resazurin), U87-MG cells; parameters: evaluation of ability to inhibit cell growth activity (IC50): scale not given here
Procedure: as §1

[9] = Homo sapiens, SW480, SW480 cells, grade of the IC50 of Table 2, read-out: evaluation of ability to inhibit cell growth activity (IC50)
[10] = SW480 cells, 48 hours, 0.1% FCS, Resazurin, read-out: inhibitory concentrations of cell growth activity IC50
[11] = 48 hours, 0.1% FCS, Resazurin, read-out: inhibitory concentrations of cell growth activity IC50
[12] = U937 cells, 48 hours, 0.1% FCS, Resazurin, read-out: inhibitory concentrations of cell growth activity IC50
[13] = U937 cells, grade of the IC50 of Table 2, read-out: evaluation of ability to inhibit cell growth activity (IC50)
[14] = Homo sapiens, MDA-MB-468, MDA-MB-468 cells, grade of the IC50 of Table 2, read-out: evaluation of ability to inhibit cell growth activity (IC50)
[15] = MDA-MB-468 cells, 48 hours, 0.1% FCS, Resazurin, read-out: inhibitory concentrations of cell growth activity IC50
[16] = A549 cells, 48 hours, 0.1% FCS, Resazurin, read-out: inhibitory concentrations of cell growth activity IC50
[17] = A549 cells, grade of the IC50 of Table 2, read-out: evaluation of ability to inhibit cell growth activity (IC50)
[18] = grade of the IC50 of Table 2, read-out: evaluation of ability to inhibit cell growth activity (IC50)
[19] = Homo sapiens, MDA-MB-231, MDA-MB-231 cells, grade of the IC50 of Table 2, read-out: evaluation of ability to inhibit cell growth activity (IC50)
[20] = MDA-MB-231 cells, 48 hours, 0.1% FCS, Resazurin, read-out: inhibitory concentrations of cell growth activity IC50
[21] = Homo sapiens, U-87 MG, grade of the IC50 of Table 2, read-out: evaluation of ability to inhibit cell growth activity (IC50)
[22] = SW480 cells, grade of the IC50 of Table 2, read-out: evaluation of ability to inhibit cell growth activity (IC50)
[23] = Chlorocebus sabaeus, Vero, 48 h, 0.1% FCS, Resazurin, read-out: inhibitory concentrations of cell growth activity IC50
[24] = Homo sapiens, U-937, 48 h, U937 cells, 48 hours, 0.1% FCS, Resazurin, read-out: inhibitory concentrations of cell growth activity IC50
[25] = Homo sapiens, U-937, U937 cells, grade of the IC50 of Table 2, read-out: evaluation of ability to inhibit cell growth activity (IC50)
[26] = MDA-MB-468 cells, grade of the IC50 of Table 2, read-out: evaluation of ability to inhibit cell growth activity (IC50)
[27] = Homo sapiens, A549, 48 h, A549 cells, 48 hours, 0.1% FCS, Resazurin, read-out: inhibitory concentrations of cell growth activity IC50
[28] = Homo sapiens, A549, A549 cells, grade of the IC50 of Table 2, read-out: evaluation of ability to inhibit cell growth activity (IC50)
[29] = Homo sapiens, Mahlavu, 48 h, 0.1% FCS, Resazurin, read-out: inhibitory concentrations of cell growth activity IC50
[30] = Homo sapiens, Mahlavu, grade of the IC50 of Table 2, read-out: evaluation of ability to inhibit cell growth activity (IC50)
[31] = Homo sapiens, MDA-MB-231, 48 h, MDA-MB-231 cells, 48 hours, 0.1% FCS, Resazurin, read-out: inhibitory concentrations of cell growth activity IC50
[32] = MDA-MB-231 cells, grade of the IC50 of Table 2, read-out: evaluation of ability to inhibit cell growth activity (IC50)

Question: Which IC50 [1, 9] does the source give for `CO[C@H]1O[C@]23C=C[C@@H]4[C@@]1(CC[C@]1(C)[C@@H]([C@H](C)C/C=C/C(C)(C)O)CC[C@@]41C)[C@@H]2CC[C@H](O)C3(C)C` [Compound 20] here?
Answer: 8 to 16 µM

Question: And the IC50 [1, 10]?
Answer: 12.6 µM

Question: And the “evaluation of ability to inhibit cell growth activity (IC50)” value ([1]; SW480 cells, grade of the IC50 of Table 2)?
Answer: ◯

Question: And the IC50 [2, 11]?
Answer: 12.5 µM

Question: And the “evaluation of ability to inhibit cell growth activity (IC50)” value [2]?
Answer: ◯

Question: What about the IC50 [3, 12] of the same molecule?
Answer: 4.33 µM

Question: And the IC50 [3, 13]?
Answer: < 8 µM

Question: And the IC50 [4, 14]?
Answer: < 8 µM

Question: What about the IC50 [4, 15] of the same molecule?
Answer: 6.9 µM

Question: What about the IC50 [5, 16] of the same molecule?
Answer: 20.1 µM

Question: And the IC50 [5, 17]?
Answer: 16 to 64 µM

Question: What about the IC50 [6, 11] of the same molecule?
Answer: 19.7 µM

Question: What about the IC50 [6, 18] of the same molecule?
Answer: 16 to 64 µM

Question: What about the IC50 [7, 19] of the same molecule?
Answer: 8 to 16 µM

Question: And the IC50 [7, 20]?
Answer: 10.4 µM

Question: And the “evaluation of ability to inhibit cell growth activity (IC50)” value ([7]; MDA-MB-231 cells, grade of the IC50 of Table 2)?
Answer: ◯

Question: And the IC50 [8, 11]?
Answer: 12.2 µM

Question: What about the IC50 [8, 21] of the same molecule?
Answer: 8 to 16 µM

Question: And the “evaluation of ability to inhibit cell growth activity (IC50)” value ([8]; grade of the IC50 of Table 2)?
Answer: ◯

Question: Which results are given for `COC1O[C@]23C=C[C@@H]4[C@@]1(CC[C@]1(C)[C@@H]([C@H](C)C[C@@H](O)C=C(C)C)CC[C@@]41C)[C@@H]2CC[C@H](O)C3(C)C` (stereo partly drawn) [Compound 21]?
Answer: IC50 [1, 10]: 118 µM; IC50 [1, 22]: 64 to 256 µM; IC50 [2, 23]: > 256 µM; IC50 ([2]; Chlorocebus sabaeus, Vero, grade of the IC50 of Table 2, read-out: evaluation of ability to inhibit cell growth activity (IC50)): > 256 µM; IC50 [3, 24]: 6.19 µM; IC50 [3, 25]: < 8 µM; IC50 [4, 15]: 35.4 µM; IC50 [4, 26]: 16 to 64 µM; IC50 [5, 27]: > 256 µM; IC50 [5, 28]: > 256 µM; IC50 [6, 29]: > 256 µM; IC50 [6, 30]: > 256 µM; IC50 [7, 31]: 130 µM; IC50 [7, 32]: 64 to 256 µM; IC50 [8, 11]: 83.5 µM; IC50 [8, 18]: 64 to 256 µM

Question: What does the source list for `CO[C@@H]1O[C@]23C=C[C@@H]4[C@@]1(CC[C@]1(C)[C@@H]([C@H](C)C[C@@H](O)C=C(C)C)CC[C@@]41C)[C@@H]2CC[C@H](O)C3(C)C` [Compound 22]?
Answer: IC50 [1, 10]: > 256 µM; IC50 [1, 22]: > 256 µM; IC50 [2, 11]: > 256 µM; IC50 [2, 18]: > 256 µM; IC50 [3, 12]: 6.17 µM; IC50 [3, 13]: < 8 µM; IC50 [4, 15]: > 256 µM; IC50 [4, 26]: > 256 µM; IC50 [5, 16]: > 256 µM; IC50 [5, 17]: > 256 µM; IC50 [6, 11]: > 256 µM; IC50 [6, 18]: > 256 µM; IC50 [7, 20]: > 256 µM; IC50 [7, 32]: > 256 µM; IC50 [8, 11]: > 256 µM; IC50 [8, 18]: > 256 µM

Question: `CO[C@H]1C=C2[C@@H](CC[C@H](O)C2(C)C)[C@]2(C=O)CC[C@]3(C)[C@@H]([C@H](C)C/C=C/C(C)(C)OC)CC[C@@]3(C)[C@H]12` [Compound 23] was tested. Which IC50 ([1]; Homo sapiens, SW480, 48 h, SW480 cells, 48 hours, 0.1% FCS, Resazurin, read-out: inhibitory concentrations of cell growth activity IC50) did it give?
Answer: 7.56 µM

Question: What about the IC50 [1, 9] of the same molecule?
Answer: < 8 µM

Question: What about the IC50 [2, 23] of the same molecule?
Answer: 15.9 µM

Question: What about the “evaluation of ability to inhibit cell growth activity (IC50)” value [2] of the same molecule?
Answer: ◯

Question: And the IC50 [3, 24]?
Answer: 5.75 µM

Question: And the IC50 [3, 25]?
Answer: < 8 µM

Question: What about the IC50 ([4]; Homo sapiens, MDA-MB-468, 48 h, MDA-MB-468 cells, 48 hours, 0.1% FCS, Resazurin, read-out: inhibitory concentrations of cell growth activity IC50) of the same molecule?
Answer: 7.55 µM

Question: What about the IC50 [4, 14] of the same molecule?
Answer: < 8 µM

Question: And the “evaluation of ability to inhibit cell growth activity (IC50)” value ([5]; A549 cells, grade of the IC50 of Table 2)?
Answer: ◯

Question: And the IC50 [5, 27]?
Answer: 15.3 µM

Question: What about the IC50 [5, 28] of the same molecule?
Answer: 8 to 16 µM

Question: What about the IC50 [6, 29] of the same molecule?
Answer: 15.4 µM

Question: What about the IC50 [6, 30] of the same molecule?
Answer: 8 to 16 µM

Question: And the “evaluation of ability to inhibit cell growth activity (IC50)” value ([6]; grade of the IC50 of Table 2)?
Answer: ◯

Question: What about the IC50 [7, 31] of the same molecule?
Answer: 7.91 µM

Question: What about the IC50 [7, 19] of the same molecule?
Answer: < 8 µM

Question: What about the IC50 ([8]; Homo sapiens, U-87 MG, 48 h, 0.1% FCS, Resazurin, read-out: inhibitory concentrations of cell growth activity IC50) of the same molecule?
Answer: 7.65 µM

Question: And the IC50 [8, 21]?
Answer: < 8 µM
